Test results as given in publication PMC8895762 (BMC Complementary Medicine and Therapies, 2022).
Like-named read-outs stand apart in the source and are kept apart here.

Legend:
[1] = system: phosphorylated NF-κB p65 in LPS-stimulated RAW 264.7 macrophages; assay: NF-κB activation by Western blotting; type: cell-based, Murine; details: 20 μM, LPS 1 μg/mL, 24 h, compared to the LPS group, p < 0.01
Method: RAW 264.7 macrophages were seeded and pretreated with respective concentrations of 20 μM of each compound (1, 4–6, 15 and 17) for 1 h, followed by the addition of LPS (1 μg/mL) for 24 h. Subsequently, the total protein was extracted by resuspending the cells in RIPA lysis buffer. In addition, protein concentrations were measured by a Bicinchoninic acid (BCA) assay kit. Proteins were separated using SDS-PAGE gels and then electroplated onto a PVDF membrane, which was blocked with 5% skim milk for 1 h at room temperature in Tris-buffered saline-Tween (TBST). Membranes were washed three times with TBST and then incubated overnight at 4 °C in diluted (1:1000) primary antibody solution (anti-NF-κB p65 or anti-phosphorylated-NF-κB p65). After washing three times with TBST, the membranes were incubated with a 1:5000 dilution of HRP-conjugated secondary antibody for 1 h at room temperature. The immunoreactive bands were determined by densitometry and quantified using a Bio-Rad auto-developer (Bio-Rad, California, USA). All results are expressed as relative ratios to the reference protein GAPDH [16, 17].

[2] = system: inflammatory cytokines in cells; parameters: method as in PMID 20221843, PMID 12105943, PMID 18448292, PMID 25821492; details: cited from earlier work
[3] = system: TNF-α in LPS-stimulated RAW 264.7 macrophages; assay: TNF-α secretion by ELISA; type: cell-based, Murine; details: 20 μM, LPS 1 μg/mL, 24 h, compared to the LPS group, p < 0.01
Method: (§1) The logarithmic growth phase of RAW 264.7 macrophages was inoculated in 96-well plates at a density of 5 × 10^3 cells/well. After 24 h of incubation, these cells were pretreated with respective concentrations of 20 μM of each compound (1, 4–6, 15 and 17) for 1 h, followed by the addition of LPS (1 μg/mL) for 24 h. Finally, 50 μL of each supernatant solution was taken to measure the concentrations of TNF-α, PGE2, IL-1β and IL-6, using the corresponding commercially available murine ELISA kits in accordance with the manufacturer’s instructions.

[4] = system: PGE2 in LPS-stimulated RAW 264.7 macrophages; assay: PGE2 secretion by ELISA; type: cell-based, Murine; details: 20 μM, LPS 1 μg/mL, 24 h, compared to the LPS group, p < 0.01
Method: as §1

[5] = system: NO production in LPS-stimulated RAW 264.7 macrophages; assay: NO production by the Griess method; type: cell-based, Murine; details: LPS 1 μg/mL; for IC50: RAW 264.7 macrophages, mean ± SD, n = 3; for inhibition at 40 µM: RAW264.7, read-out: NO inhibition rate; for inhibition at 40 µM / NO inhibition rate: 40 μM
Method: (§2) Murine RAW 264.7 macrophages were purchased from the American Tissue Culture Collection (Manassas, USA). These cells were incubated in DMEM supplemented with 10% FBS, 100 U/mL penicillin and 100 U/mL streptomycin in humidified 5% carbon dioxide (CO2) at 37 °C [16, 17].
The effects of 19 constituents on NO production in LPS-induced RAW 264.7 macrophages were determined using the Griess method. Prior to treatment, RAW 264.7 macrophages (5 × 10^3 cells/well) were seeded into 96-well plates and incubated for 24 h. […] After 1 h, cells were incubated with or without LPS at a concentration of 1 μg/mL at 37 °C for 24 h. After incubation, 50 μL of each supernatant solution was collected and mixed with equal volumes of Griess Reagent I and Griess Reagent II, respectively. The absorbance (A) was measured at 540 nm after 10 min of incubation at room temperature. The standard concentration of sodium nitrite was used to calculate the nitrite concentration. Moreover, the NO inhibition rate (%) = (ALPS − ALPS + sample)/(ALPS − Acontrol) × 100, where ALPS, ALPS + sample, and Acontrol are the absorbance of LPS model group, LPS + sample group, and DMEM group, respectively.

[6] = CCK-8 cell viability assay; type: cell-based, Murine; details: mouse
Method: as §2
(§3) The effects of 19 constituents on the viability of RAW 264.7 macrophages were assessed by CCK-8 assay. Prior to treatment, RAW 264.7 macrophages (5 × 10^3 cells/well) were seeded into 96-well plates and incubated for 24 h. All cultured cells were treated with or without 19 compounds at a concentration of 40 μM at 37 °C for 24 h. After incubation, 10 μL of CCK-8 solution was added to each well and incubated at 37 °C. After 2 h, the absorbance of each well was measured at 450 nm in a microplate reader. Cell viability was calculated using the following formular:
(§4) Cell viability (%) = Asample/Acontrol × 100, where Asample and Acontrol are the absorbance of cells treated with the compound and untreated cells, respectively. Moreover, the latter is expressed as 100% cell viability.

[7] = system: IL-6 in LPS-stimulated RAW 264.7 macrophages; assay: IL-6 secretion by ELISA; type: cell-based, Murine; details: 20 μM, LPS 1 μg/mL, 24 h, compared to the LPS group, p < 0.01
Method: as §1

[8] = system: IL-1β in LPS-stimulated RAW 264.7 macrophages; assay: IL-1β secretion by ELISA; type: cell-based, Murine; details: 20 μM, LPS 1 μg/mL, 24 h, compared to the LPS group, p < 0.01
Method: as §1

RAW 264.7 macrophages = assay: CCK-8 cell viability assay; type: cell-based, Murine; details: 40 μM, 24 h, RAW 264.7 macrophages, mean ± SD, n = 3
Method: as §2, §3, §4

BV2 microglia = system: BV2 microglia; parameters: method as in PMID 22552813; details: 40, 60 and 80 μM; cited from earlier work
[9] = 40 μM, 24 h, RAW 264.7 macrophages, mean ± SD, n = 3, read-out: Cell viability (%)

| IC50 ([5]; 24 h) | IC50 ([5]; Mus musculus, RAW264.7, 24 h) | Compound | inhibition at 40 µM ([5]; Mus musculus, 24 h) | viability at 24 h, 40 µM [6] | Cell viability (%) (RAW 264.7 macrophages) | NO inhibition rate ([5]; 24 h) | also measured |
| --- | --- | --- | --- | --- | --- | --- | --- |
| 18.4 ± 2.67 µM | ≤ 20 µM | O=c1c(O)c(-c2ccc(O)cc2)oc2cc(O)cc(O)c12 [Compound 1, kaempferol] | > 50% | 92.4 ± 3.96% | – | – | Phosphorylation of NF-κB p65 levels [1]: significantly lower; Anti-inflammatory effects by suppressing the secretion of inflammatory cytokines [2]: anti-inflammatory effects; Level of TNF-α [3]: significantly reduced; Level of PGE2 [4]: significantly reduced; Level of IL-6 [7]: significantly reduced; Level of IL-1β [8]: significantly reduced |
| – | > 40 µM | O=c1c(O[C@@H]2O[C@H](CO)[C@@H](O)[C@H](O)[C@H]2O)c(-c2ccc(O)cc2)oc2cc(O)cc(O)c12 [Compound 2, astragalin] | ≤ 50% | – | – | – | Anti-inflammatory effects by suppressing the secretion of inflammatory cytokines [2]: anti-inflammatory effects; viability at 24 h, 40 µM [6, 9]: 95 ± 1.86% |
| – | 12.2 ± 1.18 µM | O=c1c(O[C@@H]2O[C@H](CO)[C@@H](O)[C@H](O)[C@H]2O)c(-c2ccc(O)cc2)oc2cc(O[C@@H]3O[C@H](CO)[C@@H](O)[C@H](O)[C@H]3O)cc(O)c12 [Compound 4, kaempferol-3,7-di-O-β-D-glucopyranoside] | > 50% | 93.4 ± 6.34% | – | – | – |
| 13.1 ± 1.61 µM | – | O=c1c(O[C@@H]2O[C@H](CO)[C@@H](O)[C@H](O)[C@H]2O[C@@H]2O[C@H](CO)[C@@H](O)[C@H](O)[C@H]2O)c(-c2ccc(O)cc2)oc2cc(O)cc(O)c12 [Compound 5, kaempferol-3-O-sophoroside] | – | – | 93.48 ± 5.33% | – | – |
| 12.6 ± 0.76 µM | – | COc1cc(O)c2c(=O)c(O[C@@H]3O[C@H](CO)[C@@H](O)[C@H](O)[C@H]3O[C@@H]3O[C@H](CO)[C@@H](O)[C@H](O)[C@H]3O)c(-c3ccc(O)cc3)oc2c1 [Compound 6, plantanone A] | – | – | 96.89 ± 1.04% | – | – |
| 26.5 ± 1.53 µM | – | O=c1c(O[C@@H]2O[C@H](CO)[C@@H](O)[C@H](O)[C@H]2O[C@@H]2O[C@H](CO)[C@@H](O)[C@H](O)[C@H]2O)c(-c2ccc(O)cc2)oc2cc(O[C@@H]3O[C@H](CO)[C@@H](O)[C@H](O)[C@H]3O)cc(O)c12 [Compound 7, kaempferol-3-O-β-D-[β-D-glucopyranosyl-(1 → 2)-glucopyranoside]-7-O-β-D-glucopyranoside] | – | – | 94.03 ± 4.52% | – | – |
| > 40 µM | – | C[C@@H]1O[C@@H](OC[C@H]2O[C@@H](Oc3c(-c4ccc(O)cc4)oc4cc(O[C@@H]5O[C@H](CO)[C@@H](O)[C@H](O)[C@H]5O)cc(O)c4c3=O)[C@H](O)[C@@H](O)[C@@H]2O)[C@H](O)[C@H](O)[C@H]1O [Compound 8, kaempferol-3-O-rutinoside-7-O-glucopyranoside] | – | – | 95.48 ± 3.54% | – | – |
| – | > 40 µM | C[C@@H]1O[C@@H](OC[C@H]2O[C@@H](O[C@H]3[C@H](Oc4c(-c5ccc(O)cc5)oc5cc(O)cc(O)c5c4=O)O[C@H](CO)[C@@H](O)[C@@H]3O)[C@H](O)[C@@H](O)[C@@H]2O)[C@H](O)[C@H](O)[C@H]1O [Compound 9, kaempferol-3-O-α-L-rhamnopyranosyl-(1 → 6)-β-D-glucopyranosyl-(1 → 2)-β-D-glucopyranoside] | ≤ 50% | 90.7 ± 3.71% | – | – | – |
| – | > 40 µM | C[C@@H]1O[C@@H](OC[C@H]2O[C@@H](Oc3c(-c4ccc(O)cc4)oc4cc(O)cc(O)c4c3=O)[C@H](O[C@@H]3O[C@H](CO)[C@@H](O)[C@H](O)[C@H]3O)[C@@H](O)[C@@H]2O)[C@H](O)[C@H](O)[C@H]1O [Compound 10, kaempferol-3-O-β-D-glucopyranosyl-(1 → 2)-[α-L-rhamnopyranosyl-(1 → 6)]-β-D-glucopyranoside] | ≤ 50% | 93.8 ± 5.06% | – | – | – |
| – | 38.5 ± 2.78 µM | O=C1C[C@@H](c2ccc(O)cc2)Oc2cc(O)cc(O)c21 [Compound 14, naringenin] | > 50% | – | – | – | Anti-inflammatory effect via inhibition of NF-κB and MAPKs pathways (BV2 microglia): possessed anti-inflammatory effect; viability at 24 h, 40 µM [6, 9]: 93 ± 6.19% |
| 18.3 ± 1.71 µM | ≤ 20 µM | O=C1c2c(O)cc(O)cc2O[C@H](c2ccc(O)cc2)[C@H]1O [Compound 15, dihydrokaempferol] | > 50% | 91.3 ± 5.38% | – | – | Phosphorylation of NF-κB p65 levels [1]: significantly lower; Anti-inflammatory effects by suppressing the secretion of inflammatory cytokines [2]: anti-inflammatory effects; Level of TNF-α [3]: significantly reduced; Level of PGE2 [4]: significantly reduced; Level of IL-6 [7]: significantly reduced; Level of IL-1β [8]: significantly reduced |
| 19.9 ± 2.01 µM | – | OC[C@H]1O[C@@H](OCCc2ccccc2)[C@H](O)[C@@H](O)[C@@H]1O [Compound 17, phenethyl-O-β-D-glucopyranoside] | – | – | 92.21 ± 3.48% | greater than 50% | Phosphorylation of NF-κB p65 levels [1]: significantly lower; Level of TNF-α [3]: significantly reduced; Level of PGE2 [4]: significantly reduced; Level of IL-6 [7]: significantly reduced; Level of IL-1β [8]: significantly reduced |
| > 40 µM | – | OC[C@H]1O[C@@H](OC[C@H]2O[C@@H](OCCc3ccccc3)[C@H](O)[C@@H](O)[C@@H]2O)[C@H](O)[C@@H](O)[C@@H]1O [Compound 18, phenethanol-β-gentiobioside] | – | – | 92.51 ± 5.62% | ≤ 50% | – |
| > 40 µM | – | C[C@@H]1O[C@@H](OC[C@H]2O[C@@H](OCCc3ccccc3)[C@H](O)[C@@H](O)[C@@H]2O)[C@H](O)[C@H](O)[C@H]1O [Compound 19, phenethyl-O-rutinoside] | – | – | 92.30 ± 9.38% | ≤ 50% | – |
| > 40 µM | – | hostaflavanone A [Compound 16] | – | – | 92.56 ± 1.97% | ≤ 50% | – |
| > 40 µM | – | plantanone B [Compound 12] | – | – | 91.93 ± 8.04% | ≤ 50% | – |
| 36.1 ± 3.77 µM | – | plantanone D [Compound 13] | – | – | 91.84 ± 1.11% | – | – |

| Compound | IC50 ([5]; 24 h) | IC50 ([5]; Mus musculus, RAW264.7, 24 h) | inhibition at 40 µM ([5]; Mus musculus, 24 h) | viability at 24 h, 40 µM [6] | Cell viability (%) (RAW 264.7 macrophages) | NO inhibition rate ([5]; 24 h) | also measured |
| --- | --- | --- | --- | --- | --- | --- | --- |
| O=c1c(O)c(-c2ccc(O)cc2)oc2cc(O[C@@H]3O[C@H](CO)[C@@H](O)[C@H](O)[C@H]3O)cc(O)c12 [Compound 3, kaempferol-7-O-β-D-glucopyranoside] | – | > 40 µM | ≤ 50% | 91.1 ± 5.28% | – | – | – |
| kaempferol-3-O-rutinoside [Compound 11] | 31.2 ± 1.09 µM | – | – | – | – | greater than 50% | Anti-inflammatory effects by suppressing the secretion of inflammatory cytokines [2]: anti-inflammatory effects |
